As a reminder, the pIC50 is the negative decadic logarithm of the IC50, by convention in mol/L. Higher therefore signals a small IC50.

Structures are written as SMILES. pIC50: −log10 of the molar value. Where a SMILES comes first, the peptide text is derived from it.

Here are results for 25 compounds from paper PMC8138313, “Identification, Selection and Immune Assessment of Liver Stage CD8 T Cell Epitopes From Plasmodium falciparum” (Frontiers in Immunology, 2021).

One test concerns the target HLA B*4402 (Homo sapiens, UniProt P01889, A223V/A65T/A93T/A95T/D201E/D98Y/E176V/E187L/E204Q/E69K/G107R/H137Y/K202T/L105A/L119I/N104T/N87E/Q56L/Q94N/R106L/R155S/R180D/S101N/S121R/S35A/S48T/T118I/V36M/W191S/Y140D/Y91S). The test is described as follows: HLA class I binding assay (cell-free competition, fluorescence polarization).
Turning to `CC[C@H](C)[C@H](NC(=O)[C@H](CC(C)C)NC(=O)[C@H](CC(=O)O)NC(=O)[C@H](CC(N)=O)NC(=O)[C@H](CCCNC(=N)N)NC(=O)[C@H](CO)NC(=O)[C@@H](NC(=O)[C@H](CCC(=O)O)NC(=O)[C@H](C)N)[C@@H](C)CC)C(=O)O` (H-AEISRNDLI-OH), the pIC50 was 5.34.

Take `CC[C@H](C)[C@H](NC(=O)[C@H](CCC(N)=O)NC(=O)[C@@H](NC(=O)[C@H](C)NC(=O)[C@H](CCCCN)NC(=O)[C@H](CC(C)C)NC(=O)[C@H](CC(N)=O)NC(=O)[C@H](CCC(=O)O)NC(=O)[C@@H](N)CC(=O)O)[C@@H](C)CC)C(=O)O` (H-DENLKAIQI-OH): the pIC50 was 4.04.

In turn, `CC(C)C[C@H](NC(=O)[C@H](CC(N)=O)NC(=O)[C@H](CCC(=O)O)NC(=O)[C@@H](N)CCC(=O)O)C(=O)N[C@@H](Cc1ccccc1)C(=O)N[C@@H](CCC(=O)O)C(=O)N[C@@H](Cc1c[nH]c2ccccc12)C(=O)N[C@@H](CO)C(=O)N[C@@H](CCCCN)C(=O)N[C@H](C(=O)O)[C@@H](C)O` (H-EENLFEWSKT-OH; N-terminus assumed) showed a pIC50 below 3.00.

Consider `CC[C@H](C)[C@H](N)C(=O)N[C@@H](CCC(=O)O)C(=O)N[C@@H](CC(N)=O)C(=O)N[C@@H](CC(N)=O)C(=O)N[C@@H](CC(C)C)C(=O)N[C@@H](Cc1ccc(O)cc1)C(=O)N[C@@H](CCC(=O)O)C(=O)N[C@@H](CCCNC(=N)N)C(=O)N[C@@H](CC(C)C)C(=O)O` (H-IENNLYERL-OH), for which the pIC50 was 4.22.

Compound `CC[C@H](C)[C@H](NC(=O)[C@H](CCC(=O)O)NC(=O)[C@H](CCCCN)NC(=O)[C@H](CCC(=O)O)NC(=O)[C@H](CCC(=O)O)NC(=O)[C@@H](N)CCCCN)C(=O)N[C@@H](CC(N)=O)C(=O)N[C@@H](CC(=O)O)C(=O)N[C@@H](CCC(=O)O)C(=O)N[C@@H](Cc1ccc(O)cc1)C(=O)O` (H-KEEKEINDEY-OH; N-terminus assumed) gave a pIC50 below 3.00.

For `CC[C@H](C)[C@H](NC(=O)[C@@H](NC(=O)[C@@H](NC(=O)[C@H](Cc1c[nH]cn1)NC(=O)[C@H](CC(=O)O)NC(=O)[C@H](CCCCN)NC(=O)[C@H](CCCCN)NC(=O)[C@H](CCC(=O)O)NC(=O)[C@@H](N)CCCCN)[C@@H](C)CC)C(C)C)C(=O)O` (H-KEKKDHIVI-OH), the pIC50 was 4.19.

The target of the next test is HLA A*0201 (Homo sapiens, UniProt P04439, D140Y/D185E/D98H/E176V/E277Q/G131W/G231S/I119V/I121R/I166T/I218V/L300P/L318F/N151K/N90K/P208A/P217A/Q86G/Q94H/R138H/R169H/T345S). Described as above.
Turning to `CC[C@H](C)[C@H](NC(=O)[C@H](CCC(=O)O)NC(=O)[C@H](CC(N)=O)NC(=O)[C@H](CC(C)C)NC(=O)[C@H](CC(C)C)NC(=O)[C@@H]1CCCN1C(=O)[C@@H]1CCCN1C(=O)[C@H](CC(C)C)NC(=O)[C@@H](N)CCCCN)C(=O)O` (H-KLPPLLNEI-OH), the pIC50 was 5.57.

The compound `CC[C@H](C)[C@H](NC(=O)[C@@H]1CCCN1C(=O)[C@H](Cc1ccc(O)cc1)NC(=O)[C@H](CCC(N)=O)NC(=O)[C@H](CC(=O)O)NC(=O)[C@H](CO)NC(=O)[C@H](CCCCN)NC(=O)[C@H](CCSC)NC(=O)[C@@H](N)CCCCN)C(=O)O` (H-KMKSDQYPI-OH) gave a pIC50 of 5.51.

The compound `CC[C@H](C)[C@H](NC(=O)[C@H](Cc1ccc(O)cc1)NC(=O)[C@@H]1CCCN1C(=O)[C@@H]1CCCN1C(=O)[C@H](CC(C)C)NC(=O)CNC(=O)[C@@H](NC(=O)[C@@H](NC(=O)[C@@H](N)Cc1ccc(O)cc1)[C@@H](C)O)[C@@H](C)CC)C(=O)O` (H-YTIGLPPYI-OH) showed a pIC50 of 5.61.

Another test deals with HLA A*2402 (Homo sapiens, UniProt P04439, D101N/D140Y/D185E/E176V/E190D/F33S/G103R/G107R/I119L/I121M/I306V/K335N/L105A/L180Q/L300P/N151K/N90K/Q86E/Q94H/R106L/R138H/R89G/T104I/T345S/V100E/W191G/Y123F). The test is described as above.
Compound `CC[C@H](C)[C@H](NC(=O)CNC(=O)[C@H](Cc1ccc(O)cc1)NC(=O)[C@@H](N)Cc1c[nH]cn1)C(=O)N[C@@H](CC(N)=O)C(=O)N1CCC[C@H]1C(=O)N[C@H](C(=O)N[C@@H](CCC(N)=O)C(=O)N[C@@H](CC(C)C)C(=O)O)C(C)C` (H-HYGINPVQL-OH) gave a pIC50 of 5.17.

Regarding `CC(C)[C@H](NC(=O)[C@H](CCCNC(=N)N)NC(=O)[C@H](CC(N)=O)NC(=O)[C@H](CCCCN)NC(=O)[C@H](Cc1ccc(O)cc1)NC(=O)[C@@H](NC(=O)[C@H](CC(N)=O)NC(=O)[C@H](Cc1ccc(O)cc1)NC(=O)[C@@H](N)Cc1c[nH]cn1)[C@@H](C)O)C(=O)N[C@@H](Cc1ccccc1)C(=O)O` (H-HYNTYKNRVF-OH), the pIC50 was 5.52. Compared with the last compound, the pIC50 is 0.35 log units higher.

As for `CC[C@H](C)[C@H](N)C(=O)N[C@@H](Cc1c[nH]c2ccccc12)C(=O)N[C@@H](Cc1ccc(O)cc1)C(=O)N[C@@H](CCCCN)C(=O)N[C@@H](Cc1ccc(O)cc1)C(=O)N[C@H](C(=O)N[C@@H](CCC(=O)O)C(=O)N[C@@H](CO)C(=O)N[C@@H](CC(=O)O)C(=O)N[C@@H](Cc1ccccc1)C(=O)O)[C@@H](C)O` (H-IWYKYTESDF-OH), the pIC50 was 5.95.

Compound `CC[C@H](C)[C@H](N)C(=O)N[C@@H](Cc1ccc(O)cc1)C(=O)NCC(=O)N[C@@H](CCCCN)C(=O)NCC(=O)NCC(=O)N[C@@H](Cc1ccccc1)C(=O)N[C@@H](CCC(N)=O)C(=O)N[C@@H](Cc1ccccc1)C(=O)O` (H-IYGKGGFQF-OH) had a pIC50 of 6.79. This pIC50 lies 0.84 log units higher than the previous one.

Compound `CC[C@H](C)[C@H](NC(=O)[C@H](CCC(=O)O)NC(=O)[C@H](CC(N)=O)NC(=O)[C@H](CC(C)C)NC(=O)[C@H](CC(C)C)NC(=O)[C@@H]1CCCN1C(=O)[C@@H]1CCCN1C(=O)[C@H](CC(C)C)NC(=O)[C@@H](N)CCCCN)C(=O)O` (H-KLPPLLNEI-OH) showed a pIC50 of 7.05.

The compound `CC[C@H](C)[C@H](NC(=O)[C@@H]1CCCN1C(=O)[C@H](Cc1ccc(O)cc1)NC(=O)[C@H](CCC(N)=O)NC(=O)[C@H](CC(=O)O)NC(=O)[C@H](CO)NC(=O)[C@H](CCCCN)NC(=O)[C@H](CCSC)NC(=O)[C@@H](N)CCCCN)C(=O)O` (H-KMKSDQYPI-OH) had a pIC50 of 5.16.

`CC[C@H](C)[C@H](NC(=O)[C@H](CCCNC(=N)N)NC(=O)[C@@H]1CCCN1C(=O)[C@H](CC(=O)O)NC(=O)[C@H](Cc1ccc(O)cc1)NC(=O)[C@@H](N)CCCCN)C(=O)N[C@@H](CO)C(=O)NCC(=O)N[C@@H](Cc1c[nH]c2ccccc12)C(=O)O` (H-KYDPRISGW-OH) had a pIC50 of 5.30.

`CC(C)C[C@H](N)C(=O)N[C@@H](Cc1ccccc1)C(=O)NCC(=O)N[C@@H](CC(=O)O)C(=O)N[C@@H](CCC(=O)O)C(=O)N[C@@H](CC(N)=O)C(=O)N[C@@H](Cc1ccccc1)C(=O)N[C@@H](CO)C(=O)N[C@@H](Cc1ccccc1)C(=O)O` (H-LFGDENFSF-OH) gave a pIC50 of 5.23.

`CSCC[C@H](N)C(=O)N[C@@H](Cc1ccc(O)cc1)C(=O)N[C@@H](Cc1c[nH]cn1)C(=O)N[C@@H](CC(N)=O)C(=O)N[C@@H](CCCCN)C(=O)N[C@@H](CCC(=O)O)C(=O)N[C@@H](Cc1ccccc1)C(=O)N[C@@H](CC(=O)O)C(=O)N[C@@H](Cc1ccccc1)C(=O)O` (H-MYHNKEFDF-OH) showed a negative logarithm of the IC50 (pIC50) of 5.35.

As to `CSCC[C@H](NC(=O)[C@@H](N)CC(N)=O)C(=O)N[C@@H](CC(N)=O)C(=O)N[C@@H](Cc1ccc(O)cc1)C(=O)N[C@@H](CCCCN)C(=O)N[C@@H](CCC(N)=O)C(=O)N[C@@H](CC(N)=O)C(=O)N[C@@H](CC(N)=O)C(=O)N[C@@H](Cc1ccccc1)C(=O)O` (H-NMNYKQNNF-OH), the negative-log IC50 (pIC50) was 4.83.

As for `NCCCC[C@H](NC(=O)[C@H](Cc1ccc(O)cc1)NC(=O)[C@@H](N)CC(N)=O)C(=O)N[C@@H](CCC(N)=O)C(=O)N[C@@H](CC(N)=O)C(=O)N[C@@H](CC(N)=O)C(=O)N[C@@H](Cc1ccccc1)C(=O)N1CCC[C@H]1C(=O)N[C@@H](Cc1ccccc1)C(=O)O` (H-NYKQNNFPF-OH), the pIC50 was 5.02. The pIC50 values of the last two compounds are within 0.2 log units of each other.

`CC[C@H](C)[C@H](NC(=O)[C@H](CC(N)=O)NC(=O)[C@H](Cc1ccc(O)cc1)NC(=O)[C@H](CCC(N)=O)NC(=O)[C@H](CC(=O)O)NC(=O)[C@H](CC(N)=O)NC(=O)[C@H](CC(N)=O)NC(=O)[C@H](Cc1ccc(O)cc1)NC(=O)[C@@H](N)CC(N)=O)C(=O)O` (H-NYNNDQYNI-OH): the pIC50 was 5.18.

As to `CC(C)C[C@H](NC(=O)[C@H](Cc1ccccc1)NC(=O)[C@@H]1CCCN1)C(=O)N[C@@H](CCCCN)C(=O)N[C@@H](CO)C(=O)NCC(=O)N[C@@H](Cc1ccccc1)C(=O)N[C@H](C(=O)N[C@@H](Cc1ccccc1)C(=O)O)[C@@H](C)O` (H-PFLKSGFTF-OH), the pIC50 was 5.08.

The compound `N=C(N)NCCC[C@H](NC(=O)[C@H](Cc1ccc(O)cc1)NC(=O)[C@H](CCCCN)NC(=O)[C@@H]1CCCN1C(=O)[C@H](Cc1c[nH]cn1)NC(=O)[C@@H](N)CO)C(=O)N[C@@H](CC(N)=O)C(=O)N[C@@H](Cc1ccccc1)C(=O)N[C@@H](CCCCN)C(=O)N[C@@H](Cc1ccccc1)C(=O)O` (H-SHPKYRNFKF-OH) had a pIC50 of 4.78.

For `CC[C@H](C)[C@H](NC(=O)[C@H](CO)NC(=O)[C@H](Cc1ccc(O)cc1)NC(=O)[C@@H](N)[C@@H](C)O)C(=O)N[C@@H](Cc1ccc(O)cc1)C(=O)N[C@H](C(=O)N[C@@H](CC(N)=O)C(=O)N[C@@H](Cc1ccccc1)C(=O)N[C@@H](CCCCN)C(=O)N[C@@H](CC(N)=O)C(=O)O)[C@@H](C)O` (H-TYSIYTNFKN-OH), the pIC50 was 4.58.

`C[C@@H](O)[C@H](NC(=O)[C@H](Cc1ccc(O)cc1)NC(=O)[C@H](CCCCN)NC(=O)[C@H](Cc1ccc(O)cc1)NC(=O)[C@@H](N)Cc1c[nH]c2ccccc12)C(=O)N[C@@H](CCC(=O)O)C(=O)N[C@@H](CO)C(=O)N[C@@H](CC(=O)O)C(=O)N[C@@H](Cc1ccccc1)C(=O)O` (H-WYKYTESDF-OH): the pIC50 was 5.60.

`CC(C)[C@H](NC(=O)[C@H](Cc1ccccc1)NC(=O)[C@H](CCC(N)=O)NC(=O)[C@H](Cc1ccccc1)NC(=O)CNC(=O)CNC(=O)[C@H](CCCCN)NC(=O)CNC(=O)[C@@H](N)Cc1ccc(O)cc1)C(=O)N[C@@H](Cc1ccccc1)C(=O)O` (H-YGKGGFQFVF-OH): the pIC50 was 6.64.

Regarding `CC[C@H](C)[C@H](NC(=O)[C@H](Cc1ccc(O)cc1)NC(=O)[C@@H]1CCCN1C(=O)[C@@H]1CCCN1C(=O)[C@H](CC(C)C)NC(=O)CNC(=O)[C@@H](NC(=O)[C@@H](NC(=O)[C@@H](N)Cc1ccc(O)cc1)[C@@H](C)O)[C@@H](C)CC)C(=O)O` (H-YTIGLPPYI-OH), the pIC50 is 5.18.

In turn, `CC[C@H](C)[C@H](NC(=O)[C@@H](NC(=O)[C@@H]1CCCN1C(=O)[C@H](Cc1ccc(O)cc1)NC(=O)[C@@H](N)Cc1ccc(O)cc1)[C@@H](C)CC)C(=O)N[C@@H](CCCNC(=N)N)C(=O)N[C@@H](CCCCN)C(=O)N[C@@H](CCC(N)=O)C(=O)N[C@@H](Cc1ccccc1)C(=O)O` (H-YYPIIRKQF-OH) gave a pIC50 of 7.00.
